Entries after “also recorded” stand apart in the source; their conditions may differ.
Key:
eqBuChE = molecular target: T1, eqBuChE (Equus caballus, UniProt P81908); test: biochemical; details: means±SEM of at least three experiments
T1 construct: purchased Sigma-Aldrich

[1] = molecular target: T2, human norepinephrine transporter (Homo sapiens, UniProt P23975); test: Norepinephrine Transporter Competition Binding Assay; details: NET Ki
T2 construct: expressed in transfected cells
Procedure: Norepinephrine Transporter Competition Binding Assay
Preparation of solutions of test and reference compounds
First, 10 mM stock solutions of tested compounds were prepared in DMSO. Serial dilutions of compounds were prepared in a 96-well microplate in an assay buffer using the automated pipetting system epMotion 5070. Each compound was tested in 8 concentrations ranging from 10^-3 to 10^-10 M (final concentration).
Radioligand binding was performed using membranes from the MDCK cell line stably transfected with the human norepinephrine transporter. All assays were carried out in duplicates. Volumes of 50 µl working solution of the tested compounds, 50 µl [ 3H]- Nisoxetine (spec. act. 80.2 Ci/mmol, final concentration 4 nM), and 150 µl diluted membranes (5 µg protein per well) prepared in assay buffer (50 mM Tris -HCl, pH 7.4; 120 mM NaCl; 5 mM KCl) were transferred to polypropylene 96-well microplate using 96-wells pipetting station Rainin Liquidator. Desipramine (10 μM) was used to define nonspecific binding. The microplate was covered with sealing tape, mixed, and incubated for 60 minutes at 4 °C. The reaction was terminated by rapid filtration through GF/B filter mate presoaked with 0.5% polyethyleneimine for 30 minutes. Five rapid washes with 300 µl 50 mM Tris buffer (4 °C, pH 7.4) were performed using a 96 -well FilterMate harvester. The filter mates were dried at 37 °C in the forced air fan incubator, and then, solid scintillator MeltiLex B/HS was melted on filter mates at 90 °C for 4 minutes. Radioactivity was counted in the MicroBeta2 scintillation counter (PerkinElmer). Data were fitted to a one -site curve-fitting equation with Prism 8.0 (GraphPad Software), and Ki values were estimated from the […]
Result of Norepinephrine Transporter Competition Binding Assay
Table S9. Results of binding to norepinephrine transporter (NET) of tested compounds COMPOUND Ki [nM] pKi Ki [nM] pKi Ki [nM] pKi

SH-SY5Y cells [2] = test: Intracellular O2•-, DHE probe, SH-SY5Y; assay type: cell-based, human
[3] = molecular target: serotonin transporter (SERT) (Homo sapiens, UniProt P31645); test: Interaction with serotonin transporter
Chain of serotonin transporter (SERT) (P31645 whole entry, species assumed): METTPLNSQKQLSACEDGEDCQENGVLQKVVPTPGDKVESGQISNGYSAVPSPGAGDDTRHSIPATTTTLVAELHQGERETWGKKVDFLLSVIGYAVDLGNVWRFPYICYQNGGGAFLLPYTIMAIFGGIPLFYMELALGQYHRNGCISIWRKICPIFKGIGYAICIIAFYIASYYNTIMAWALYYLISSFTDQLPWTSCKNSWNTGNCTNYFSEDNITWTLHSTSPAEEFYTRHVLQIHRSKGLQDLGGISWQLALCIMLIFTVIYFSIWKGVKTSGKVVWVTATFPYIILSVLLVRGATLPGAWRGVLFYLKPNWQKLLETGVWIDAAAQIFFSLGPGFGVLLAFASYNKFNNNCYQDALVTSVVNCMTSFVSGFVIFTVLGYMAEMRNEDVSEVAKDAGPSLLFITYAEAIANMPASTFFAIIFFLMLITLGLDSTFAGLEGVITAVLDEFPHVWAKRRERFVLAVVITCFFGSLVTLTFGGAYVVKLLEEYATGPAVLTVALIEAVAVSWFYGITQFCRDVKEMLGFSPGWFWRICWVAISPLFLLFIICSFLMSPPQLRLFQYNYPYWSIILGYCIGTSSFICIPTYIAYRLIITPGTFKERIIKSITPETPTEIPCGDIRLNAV

mice = test: Forced swim test (FST); assay type: in vivo; details: 1 mg/kg i.p., vs control
Procedure: Animals and housing conditions
In all pharmacodynamic in vivo experiments, except for the Barnes maze (BM) task, adult male Albino Swiss (CD-1) mice weighing between 18 and 22 g and purchased from the Animal Breeding Farm of the Faculty of Pharmacy, Jagiellonian University Medical College were used. In BM task, C57BL/6J mice of the same weight (Animalab, Poland) were used.
Animals were housed in cages (10 mice per cage) at a constant temperature of 22 ± 2 °C, humidity of 55 ± 10%, and a light/dark (12:12) cycle (lights on at 7 AM). Before the experiments, the animals had unlimited access to food and water. […]
Briefly, mice were individually placed in a glass cylinder (25 cm high, 10 cm in diameter) containing 11 cm of water maintained at 23–25 °C and were left therein for 6 min. […] The total duration of immobility was measured during the final 4 min of a 6-min test session. […]
The four-plate apparatus (FPT; Bioseb, France) consists of a cage (25 × 18 × 16 cm) that is floored with four rectangular metal plates (11 × 8 cm). […] The number of punished crossings was counted […]
of the closed arms. […] The following parameters were measured in this test: time spent in open arms of the EPM device and the number of entries to open arms. […]

SH-SY5Y cells [4] = test: LC-MS determination of total MDA, SH-SY5Y; assay type: cell-based, human; details: all time intervals

T2 sequence (P23975 whole entry): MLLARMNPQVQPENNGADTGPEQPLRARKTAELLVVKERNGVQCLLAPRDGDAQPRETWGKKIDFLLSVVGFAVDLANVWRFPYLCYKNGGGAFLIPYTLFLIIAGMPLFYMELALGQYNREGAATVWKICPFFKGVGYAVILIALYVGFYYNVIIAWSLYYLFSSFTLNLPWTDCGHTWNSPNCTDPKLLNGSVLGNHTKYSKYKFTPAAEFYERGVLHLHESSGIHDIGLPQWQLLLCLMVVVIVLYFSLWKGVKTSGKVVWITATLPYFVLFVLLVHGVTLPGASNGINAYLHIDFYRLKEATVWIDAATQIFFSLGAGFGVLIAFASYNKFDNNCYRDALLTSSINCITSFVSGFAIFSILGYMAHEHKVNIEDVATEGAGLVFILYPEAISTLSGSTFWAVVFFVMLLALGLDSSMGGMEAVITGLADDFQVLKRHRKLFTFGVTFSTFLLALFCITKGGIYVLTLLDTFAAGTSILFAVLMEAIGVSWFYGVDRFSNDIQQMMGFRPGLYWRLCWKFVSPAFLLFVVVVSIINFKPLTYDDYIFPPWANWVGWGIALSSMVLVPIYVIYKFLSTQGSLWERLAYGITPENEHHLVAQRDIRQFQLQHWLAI
T1 sequence (P81908 whole entry): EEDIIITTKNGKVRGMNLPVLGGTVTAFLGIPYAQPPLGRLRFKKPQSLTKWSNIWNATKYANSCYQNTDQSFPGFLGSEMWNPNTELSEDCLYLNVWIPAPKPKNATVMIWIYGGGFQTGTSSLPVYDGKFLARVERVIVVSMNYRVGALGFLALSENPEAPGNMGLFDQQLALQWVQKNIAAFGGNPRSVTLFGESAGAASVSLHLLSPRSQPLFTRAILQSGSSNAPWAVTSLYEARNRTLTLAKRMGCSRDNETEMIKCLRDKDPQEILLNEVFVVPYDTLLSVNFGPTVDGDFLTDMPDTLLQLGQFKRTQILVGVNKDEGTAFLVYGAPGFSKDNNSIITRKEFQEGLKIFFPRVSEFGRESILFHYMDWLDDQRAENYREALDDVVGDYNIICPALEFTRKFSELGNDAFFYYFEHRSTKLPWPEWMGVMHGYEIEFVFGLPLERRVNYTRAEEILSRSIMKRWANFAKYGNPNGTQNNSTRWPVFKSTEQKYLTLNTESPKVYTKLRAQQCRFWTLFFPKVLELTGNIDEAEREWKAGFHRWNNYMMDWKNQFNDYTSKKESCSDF

O[C@H](CNCC1CC1)[C@H](Cc1ccccc1)NC1c2ccccc2-c2ccccc21 [Compound 6]
IC50 (eqBuChE): 310 ± 10 nM
Ki [1]: 837 nM
Ki ([1]; third Ki column (likely the mean)): 774 nM
Ki ([1]; [3H]-Nisoxetine): 714 nM
increase in intracellular O2•- (SH-SY5Y cells [2]; all concentrations and times): No significant increase
decrease of O2•- level (SH-SY5Y cells [2]; conc. = IC50, 24 h): 15%
interaction with SERT [3]: ruled out interactions
duration of immobility (mice): reduced immobility; also recorded: mild yet statistically significant antidepressant activity
increase in intracellular level of MDA (SH-SY5Y cells [4]): no significant increase
